Results reported in patent publication US20250352539A1, “COMBINATION THERAPY FOR TREATING CANCER” (AstraZeneca AB, priority 2022, published 2025).

Columns and labels:
Assay type in all cases: cell-based
[1] = system: JHOM-1; experiment: 144-hour CellTiter-Glo 2.0 proliferation assay; conditions: JHOM-1 ovarian; monotherapy; read-out: mono GI50
Method: (§1) Combination profiling was carried out in a panel of cancer cell lines utilising Horizon Discovery's High Throughput Screening platform.
(§2) Cell lines that have been preserved in liquid nitrogen are thawed and expanded in growth media (see Table 1). Once cells have reached expected doubling times, screening begins. Cells are seeded in 25 μl of growth media in black 384-well tissue culture treated plates (seeding density as noted in Table 11).
(§3) Cells are equilibrated in assay plates via centrifugation and placed at 37° C. 5% CO2 for twenty-four hours before treatment.
(§4) Compounds are transferred to assay plates using and Echo acoustic liquid handling system. 25 nl of each compound was added at the appropriate concentration for all combination dose points. Therefore, final assay volume would be […]. Assay plates are incubated with compound for 6 days and are then analysed using CellTiter-Glo 2.0. All data points are collected via automated processes and are subject to quality control and analysed.
(§5) Growth Inhibition (GI) is reported as a measure of cell growth. The GI percentages are calculated by applying the following test and equation: […]
(§6) where T is the signal measure for a test article, V is the untreated/vehicle-treated control measure, and Vo is the untreated/vehicle control measure at time zero (also colloquially referred as T0 plates). This formula is derived from the Growth Inhibition calculation used in the National Cancer Institute's NCI-60 high throughput screen. For the purposes of this report, all data analysis was performed in Growth Inhibition (except where noted).

[2] = system: PA-1; experiment: 144-hour CellTiter-Glo 2.0 proliferation assay; conditions: Homo sapiens; PA-1 ovarian; monotherapy; read-out: mono GI50
Method: as §1, §2, §3, §4, §5, §6

[3] = system: T98G; experiment: 7 days treatment combination assay in glioblastoma cell lines (Hoeschst positive nuclei count); conditions: Homo sapiens, 168 h, Adult GBM
Method: (§7) The assay was carried out in the following glioblastoma cell lines: • U87 • U87 R132H • T98G • SJ-G2 ctrl • SJ-G2 IDH using AZD6738 and AZD9574
(§8) The cells were seeded the day before drug treatment in 150 μl per well of 96-well plate. For SJ-G2 cells, the plates were coated with poly-Lysine solution for 15 minutes, washed twice with sterile water and dried for 1 hour.
(§9) The seeding numbers were (cells per well): U87-500; T98G-500; SJ-G2 ctrl-1000; SJ-G2 IDH.
(§10) The compounds were added via a drug dispenser according to the following scheme:
(§11) after 7 Days: • (a) for SJ-G2, 75 μl Cell Titer Glow 2.0 solution (Promega) was added and incubated for 15 minutes at 37° C. The cells were then read using a plate reader. • (b) for U87 and T98G, 75 μl of 37% formaldehyde was added and fixed for 20 minutes at room temperature. This was then washed twice with PBS, followed by Hoeschst staining for 1 hour at room temperature (Hoeschst 1:10000 in PBS). This was then washed twice in PBS and the plates sealed. The plates were then imaged on Cell Insight with 10× magnification at the 25 position. Hoeschst positive nuclei were identified as objects, and cell survival was analysed by counting objects (Hoeschst positive nuclei) with the corresponding settings for U87 or T98G.
(§12) An analysis of drug synergy was then carried out to yield a HSA score

[4] = system: U87 IDH WT; experiment: as above; conditions: 168 h, Adult GBM
Method: as §7, §8, §9, §10, §11, §12

[5] = system: U87 IDHm; experiment: as above; conditions: 168 h, Adult GBM
Method: as §7, §8, §9, §10, §11, §12

[6] = system: SJ-G2 IDHm; experiment: 7 days treatment combination assay in glioblastoma cell lines (Cell Titer Glow 2.0); conditions: 168 h, paediatric GBM
Method: as §7, §8, §9, §10, §11, §12

[7] = system: SJ-G2 WT; experiment: as above; conditions: 168 h, paediatric GBM
Method: as §7, §8, §9, §10, §11, §12

Which results are given for C[C@@H]1COCCN1c1cc(C2([S@](C)(=N)=O)CC2)nc(-c2ccnc3[nH]ccc23)n1 [AZD6738, 4-{4-[(3R)-3-Methylmorpholin-4-yl]-6-[1-((R)—S-methylsulfonimidoyl)cyclopropyl]pyrimidin-2-yl}-1H-pyrrolo[2,3-b]-pyridine]?
GI50 [1]: 0.939 µM; GI50 [2]: 1.22 µM; IC50 [3]: 0.213 µM; IC50 [4]: 0.649 µM; IC50 [5]: 0.766 µM; IC50 [6]: 0.308 µM; IC50 [7]: 0.16 µM
